Measured values: patent publication US10787450B2 (BRISTOL-MYERS SQUIBB COMPANY, priority 2016, dated 2020)
Counter-ions that a name gives are not always drawn.

Target: ROCK2 (Homo sapiens (Human), UniProt O75116)
Experiment: ROCK2 kinase inhibition assay (FITC peptide substrate, LABCHIP 3000 Reader)
Assay type: biochemical
Details: 5 μM ATP, 1.5 μM peptide substrate
Method: The effectiveness of compounds of the present invention as ROCK inhibitors can be determined in a 30 μL assay containing 20 mM HEPES, pH 7.5, 20 mM MgCl2, 0.015% Brij-35, 4 mM DTT, 5 μM ATP and 1.5 μM peptide substrate (FITC-AHA-AKRRRLSSLRA-OH) (SEQ ID NO. 1). Compounds were dissolved in DMSO so that the final concentration of DMSO was <2%, and the reaction was initiated with Rho kinase variants. After incubation, the reaction was terminated by the addition of EDTA and the phosphorylated and non-phosphorylated peptides separated using a LABCHIP® 3000 Reader (Caliper Life Sciences). […] Compounds were tested in dose-response format, and the inhibition of kinase activity was calculated at each concentration of compound. The inhibition data were fit using a curve-fitting program to determine the IC50; i.e., the concentration of compound required to inhibit 50% of kinase activity.
Representative examples were tested in the ROCK2 assay described above and found having ROCK2 inhibitory activity.

Sequence of ROCK2 (O75116 whole entry, species assumed): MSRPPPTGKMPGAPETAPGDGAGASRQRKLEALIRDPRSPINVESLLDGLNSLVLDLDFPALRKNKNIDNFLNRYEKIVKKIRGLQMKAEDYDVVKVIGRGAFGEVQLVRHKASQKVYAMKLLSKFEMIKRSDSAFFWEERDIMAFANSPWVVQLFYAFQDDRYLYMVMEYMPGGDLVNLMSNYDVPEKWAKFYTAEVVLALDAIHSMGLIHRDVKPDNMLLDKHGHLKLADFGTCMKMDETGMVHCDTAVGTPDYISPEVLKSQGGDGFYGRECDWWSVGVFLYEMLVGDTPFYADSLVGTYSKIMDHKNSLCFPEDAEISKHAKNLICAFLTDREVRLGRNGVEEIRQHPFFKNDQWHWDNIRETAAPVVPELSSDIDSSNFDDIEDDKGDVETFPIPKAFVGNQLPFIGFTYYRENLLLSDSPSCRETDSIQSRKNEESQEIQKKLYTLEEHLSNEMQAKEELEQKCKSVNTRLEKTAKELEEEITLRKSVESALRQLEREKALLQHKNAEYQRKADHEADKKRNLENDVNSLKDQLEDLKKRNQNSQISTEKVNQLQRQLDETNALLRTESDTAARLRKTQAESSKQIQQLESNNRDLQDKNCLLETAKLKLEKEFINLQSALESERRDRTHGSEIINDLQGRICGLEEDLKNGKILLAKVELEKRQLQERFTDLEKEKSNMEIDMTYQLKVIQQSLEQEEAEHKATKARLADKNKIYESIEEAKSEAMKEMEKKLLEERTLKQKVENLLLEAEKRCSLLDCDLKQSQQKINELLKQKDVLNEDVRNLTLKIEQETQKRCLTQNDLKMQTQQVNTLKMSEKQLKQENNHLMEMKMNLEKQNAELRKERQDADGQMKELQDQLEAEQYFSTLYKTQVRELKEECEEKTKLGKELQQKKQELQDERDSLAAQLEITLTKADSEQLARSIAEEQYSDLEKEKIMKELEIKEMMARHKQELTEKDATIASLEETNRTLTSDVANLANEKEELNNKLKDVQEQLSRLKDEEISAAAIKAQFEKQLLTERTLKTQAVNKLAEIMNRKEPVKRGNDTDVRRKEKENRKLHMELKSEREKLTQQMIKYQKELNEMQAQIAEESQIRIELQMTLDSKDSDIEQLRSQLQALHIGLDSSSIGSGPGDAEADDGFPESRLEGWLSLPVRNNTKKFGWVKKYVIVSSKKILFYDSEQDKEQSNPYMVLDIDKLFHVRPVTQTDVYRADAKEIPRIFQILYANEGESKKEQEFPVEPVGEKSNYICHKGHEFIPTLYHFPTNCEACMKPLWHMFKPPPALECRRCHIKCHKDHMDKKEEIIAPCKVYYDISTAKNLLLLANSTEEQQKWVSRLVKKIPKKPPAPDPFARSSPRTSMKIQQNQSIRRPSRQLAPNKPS

Compound	IC50
CCN(C)C(=O)c1cccc(CN2C(=O)N(c3ccc(-c4cn[nH]c4)cc3)CC23CCOCC3)c1 [Example 41, 3-((3-(4-(1H-pyrazol-4-yl)phenyl)-2-oxo-8-oxa-1,3-diazaspiro[4.5]decan-1-yl)methyl)-N-ethyl-N-methylbenzamide]	30 to 250 nM
O=C1N(c2ccc(-c3cn[nH]c3)cc2)CC2(CCOCC2)N1CC1CCCCC1 [Example 30, 3-(4-(1H-pyrazol-4-yl)phenyl)-1-(cyclohexylmethyl)-8-oxa-1,3-diazaspiro[4.5]decan-2-one]	30 to 250 nM
COc1cccc(CN2C(=O)N(c3ccc(-c4cn[nH]c4)c(C)n3)CC23CCN(C(=O)OC(C)(C)C)CC3)c1 [Example 52, tert-butyl 1-(3-methoxybenzyl)-3-(6-methyl-5-(1H-pyrazol-4-yl)pyridin-2-yl)-2-oxo-1,3,8-triazaspiro[4.5]decane-8-carboxylate]	30 to 250 nM
COc1cc(F)cc(CN2C(=O)N(c3ccc(-c4cn[nH]c4)cc3)CC23CCN(CC(F)F)CC3)c1 [Example 132, 3-(4-(1H-pyrazol-4-yl)phenyl)-8-(2,2-difluoroethyl)-1-(3-fluoro-5-methoxybenzyl)-1,3,8-triazaspiro[4.5]decan-2-one]	< 3 nM
COc1cccc(CN2C(=O)N(c3ccc(-c4cn[nH]c4)cn3)CC23CCN(C(=O)C2COC2)CC3)c1 [Example 196, 3-(5-(1H-pyrazol-4-yl)pyridin-2-yl)-1-(3-methoxybenzyl)-8-(oxetane-3-carbonyl)-1,3,8-triazaspiro[4.5]decan-2-one]	3 to 30 nM
O=C1N(c2ccc(-c3cn[nH]c3)cc2)CC2(CCOCC2)N1Cc1ccc(Cl)c(Cl)c1 [Example 19, 3-(4-(1H-pyrazol-4-yl)phenyl)-1-(3,4-dichlorobenzyl)-8-oxa-1,3-diazaspiro[4.5]decan-2-one]	30 to 250 nM
O=C1N(c2ccc(-c3cn[nH]c3)cc2)CC2(CCNCC2)N1Cc1cc(F)cc(F)c1 [Example 68]	3 to 30 nM
COc1cccc(NC2C(=O)N(c3ccc(-c4cn[nH]c4)cc3)CC23CCN(C(=O)CO)CC3)c1 (centres unmarked) [Example 250, 2-(4-(1H-pyrazol-4-yl)phenyl)-8-(2-hydroxy-acetyl)-4-((3-methoxy-phenyl)amino)-2,8-diazaspiro [4.5]decan-3-one]	250 to 3000 nM
COc1cccc(CN2C(=O)N(c3ncc(-c4cn[nH]c4)c(OC)n3)CC23CCN(C(=O)C(C)C)CC3)c1 [Example 215, 8-isobutyryl-3-(4-methoxy-5-(1H-pyrazol-4-yl)pyrimidin-2-yl)-1-(3-methoxybenzyl)-1,3,8-triazaspiro[4.5]decan-2-one]	30 to 250 nM
O=C1N(c2ccc(-c3cn[nH]c3)cc2)CC2(CCNCC2)N1Cc1cccc(OCC2CC2)c1 [Example 60, 3-(4-(1H-pyrazol-4-yl)phenyl)-1-(3-(cyclopropylmethoxy)benzyl)-1,3,8-triazaspiro[4.5] decan-2-one, TFA]	3 to 30 nM
COc1cccc(NC2C(=O)N(c3ccc(-c4cn[nH]c4)cc3)CC23CN(C(=O)OC(C)(C)C)C3)c1 (centres unmarked) [Example 240, tert-butyl 6-(4-(1H-pyrazol-4-yl)phenyl)-8-((3-methoxyphenyl)amino)-7-oxo-2,6-diazaspiro[3.4]octane-2-carboxylate]	30 to 250 nM
Cc1ccc(F)cc1CN1C(=O)N(c2ccc(-c3cn[nH]c3)cc2)CC12CCOCC2 [Example 27, 3-(4-(1H-pyrazol-4-yl)phenyl)-1-(5-fluoro-2-methylbenzyl)-8-oxa-1,3-diazaspiro[4.5]decan-2-one]	30 to 250 nM

More lines, now with the values ahead:

IC50	Compound
3 to 30 nM	COc1cccc(CN2C(=O)N(c3ccc(-c4cn[nH]c4)cn3)CC23CCN(C(=O)C(C)(C)O)CC3)c1 [Example 199, 3-(5-(1H-pyrazol-4-yl)pyridin-2-yl)-8-(2-hydroxy-2-methylpropanoyl)-1-(3-methoxybenzyl)-1,3,8-triazaspiro[4.5]decan-2-one]
< 3 nM	COCCN1CCC2(CC1)CN(c1ccc(-c3cn[nH]c3)c(OC)n1)C(=O)N2Cc1cccc(F)c1C [Example 165, 1-(3-fluoro-2-methylbenzyl)-3-(6-methoxy-5-(1H-pyrazol-4-yl)pyridin-2-yl)-8-(2-methoxyethyl)-1,3,8-triazaspiro[4.5]decan-2-one]
< 3 nM	COc1nc(N2CC3(CCN(C(=O)C(C)(C)O)CC3)N(Cc3cccc(F)c3C)C2=O)ccc1-c1cn[nH]c1 [Example 230, 1-(3-fluoro-2-methylbenzyl)-8-(2-hydroxy-2-methylpropanoyl)-3-(6-methoxy-5-(1H-pyrazol-4-yl)pyridin-2-yl)-1,3,8-triazaspiro[4.5]decan-2-one]
3 to 30 nM	COc1cccc(CN2C(=O)N(c3ncc(-c4cn[nH]c4)c(OC)n3)CC23CCN(C(=O)OC(C)(C)C)CC3)c1 [Example 56, tert-butyl 3-(4-methoxy-5-(1H-pyrazol-4-yl)pyrimidin-2-yl)-1-(3-methoxybenzyl)-2-oxo-1,3,8-triazaspiro[4.5]decane-8-carboxylate]
< 3 nM	CCc1nc(N2CC3(CCN(C(=O)CC(C)C)CC3)N(Cc3cccc(OC)c3)C2=O)ccc1-c1cn[nH]c1 [Example 200, 3-(6-ethyl-5-(1H-pyrazol-4-yl)pyridin-2-yl)-1-(3-methoxybenzyl)-8-(3-methylbutanoyl)-1,3,8-triazaspiro[4.5]decan-2-one]
< 3 nM	COc1nc(N2CC3(CCN(C(=O)C(C)(C)CO)CC3)N(Cc3cccc(F)c3C)C2=O)ccc1-c1cn[nH]c1 [Example 228, 1-(3-fluoro-2-methylbenzyl)-8-(3-hydroxy-2,2-dimethylpropanoyl)-3-(6-methoxy-5-(1H-pyrazol-4-yl)pyridin-2-yl)-1,3,8-triazaspiro[4.5]decan-2-one]
< 3 nM	CC(C)CNC(=O)c1cccc(CN2C(=O)N(c3ccc(-c4cn[nH]c4)cc3)CC23CCOCC3)c1 [Example 35, 3-((3-(4-(1H-pyrazol-4-yl)phenyl)-2-oxo-8-oxa-1,3-diazaspiro[4.5]decan-1-yl)methyl)-N-isobutylbenzamide]
< 3 nM	CNC(=O)CN1CCC2(CC1)CN(c1ccc(-c3cn[nH]c3)cc1)C(=O)N2Cc1cccc(OC)c1 [Example 168, 2-(3-(4-(1H-pyrazol-4-yl)phenyl)-1-(3-methoxybenzyl)-2-oxo-1,3,8-triazaspiro[4.5]decan-8-yl)-N-methylacetamide]
< 3 nM	COc1cccc(CN2C(=O)N(c3ccc(-c4cn[nH]c4)cc3)CC23CCN(C(=O)C2CCC(F)(F)CC2)CC3)c1 [Example 171, 3-(4-(1H-pyrazol-4-yl)phenyl)-8-(4,4-difluorocyclohexanecarbonyl)-1-(3-methoxybenzyl)-1,3,8-triazaspiro[4.5]decan-2-one]
< 3 nM	CCc1nc(N2CC3(CCN(C(=O)CO)CC3)N(Cc3cccc(OC)c3)C2=O)ccc1-c1cn[nH]c1 [Example 184, 3-(6-ethyl-5-(1H-pyrazol-4-yl)pyridin-2-yl)-8-(2-hydroxyacetyl)-1-(3-methoxybenzyl)-1,3,8-triazaspiro[4.5]decan-2-one]
< 3 nM	CCc1nc(N2CC3(CCN(C(C)=O)CC3)N(Cc3cccc(F)c3C)C2=O)ccc1-c1cn[nH]c1 [Example 87, 8-acetyl-3-(6-ethyl-5-(1H-pyrazol-4-yl)pyridin-2-yl)-1-(3-fluoro-2-methylbenzyl)-1,3,8-triazaspiro[4.5]decan-2-one]
